{"source": "patent US20120225852A1", "about": "“USE OF STEROID COMPOUNDS” (priority 2009, published 2012)", "key": {"[1]": {"tested_on": "purified CD4+ T cells from unprimed DO11.10 TCR Tg mice", "assay": "Purified CD4+ T cells with mitomycin C-treated splenocytes and OVA peptide 323-339", "type": "cell-based", "details": "OVA peptide 323-339; FIG. 2", "text": "The decreased proliferative response of CD4^+ T cells was not due to increased cell death as evident by similar numbers of CD4^+ 7AAD^− cells in all cultures after flow-cytometric analysis (FIG. 4)."}, "[2]": {"tested_on": "MOG peptide-induced experimental autoimmune encephalomyelitis (EAE)", "assay": "MOG peptide-induced EAE, treatment from the day of EAE induction", "type": "in vivo, C57BL/6 mice", "text": "EAE is an autoimmune condition of the central nervous system (CNS) and results from infiltration of the central nervous system by destructive autoreactive T lymphocytes and subsequent demyelination and axonal and neuronal degeneration.\n(§1) Acute EAE was induced in C57BL/6 mice by immunizing them against the pathogenic myelin oligodendrocyte glycoprotein (MOG) peptide (amino acids 35-55). […] Mice were monitored daily in a blinded fashion for clinical symptoms (paralysis). Tissues (brain, spinal cord, DLNs) were collected in order to perform histological evaluation (staining with H&E on brain and spinal cord sections) and ex vivo cultures for measurement of T cell responses and cytokine release."}, "[3]": {"tested_on": "Draining lymph node cells from mice induced to develop EAE", "assay": "Ex vivo response of draining lymph node cells to MOG35-55, mice treated from EAE induction", "type": "in vivo, C57BL/6 mice", "details": "treatment from EAE induction", "text": "as §1\nAlso tested were the proliferative response and cytokine secretion of lymphoid cells (T cells) to MOG35-55 peptide from the mice that had been induced to develop EAE. […] In addition, the secretion of the inflammatory cytokine IL-17 was increased (FIG. 9d), but its absolute increase was extremely low in comparison to the IFN-γ increase."}, "[4]": {"tested_on": "Draining lymph node cells from mice induced to develop EAE", "assay": "Ex vivo cytokine secretion of draining lymph node cells to MOG35-55, mice treated from EAE onset", "type": "in vivo, C57BL/6 mice", "details": "treatment from EAE onset", "experimental": "Tests were also carried out to discover whether DHEA and its spiro-analogs were protective after the onset of experimental autoimmune encephalomyelitis (EAE). For these tests, acute EAE was induced in C57BL/6 mice, as previously described. […] Mice were monitored daily in a blinded fashion for clinical symptoms (paralysis). Tissues (brain, spinal cord, DLNs) were collected in order to perform histological evaluation (staining with H&E on brain and spinal cord sections) and ex vivo cultures for measurement of T cell responses and cytokine release.\nAlso tested were the cytokine secretion of lymphoid cells (T cells) to MOG35-55 peptide from the mice that had been induced to develop EAE."}, "[5]": {"tested_on": "allergic airway inflammation", "assay": "Mouse model of allergic asthma (OVA/alum sensitization, aerosolized OVA)", "type": "in vivo, BALB/c mice", "experimental": "BALB/c mice were sensitized with 0.01 mg chicken ovalbumin (OVA) in 0.2 ml alum intraperitoneally on days 0 and 12, and were exposed to aerosolized OVA (5% for 20 min) on days 18-20."}, "[6]": {"tested_on": "established MOG peptide-induced EAE", "assay": "Established MOG peptide-induced EAE, treatment from day 13", "type": "in vivo, C57BL/6 mice", "text": "as §1, with “the animals” for “them”, “35-55). Mice were left untreated until disease symptoms were apparent (score 1-2) at around day 12.” for “35-55).”"}, "[7]": {"tested_on": "Draining lymph node cells from mice induced to develop EAE", "assay": "Immune responses of mice with established EAE treated from day 13 (DLN cells to MOG35-55, cell subsets)", "type": "in vivo, C57BL/6 mice", "text": "as §1, with “the animals” for “them”, “35-55). Mice were left untreated until disease symptoms were apparent (score 1-2) at around day 12.” for “35-55).”"}, "[8]": {"tested_on": "ongoing EAE in recipient mice", "assay": "Adoptive transfer of DLN cells from treated EAE donors into recipients with ongoing EAE", "type": "in vivo", "text": "The donor DLN cells were obtained on day 17, which is the peak of disease for control mice. This protection was observed until day 28-30 when the mice were euthanized."}, "[9]": {"tested_on": "ongoing EAE in recipient mice", "assay": "Adoptive transfer of CD4+ T cells from treated EAE donors into recipients with ongoing EAE", "type": "in vivo"}, "[10]": {"tested_on": "EAE in C57BL/6 Rag−/− recipients", "assay": "Adoptive transfer of CD4+ T cells from treated EAE donors into C57BL/6 Rag-/- recipients", "type": "in vivo, C57BL/6 Rag−/− mice"}, "[11]": {"tested_on": "Naive CD4+ T cells", "assay": "Naive CD4+ T cells under Th17 cell polarizing conditions", "type": "cell-based"}, "[12]": {"tested_on": "naïve CD4+ T cells", "assay": "Naive CD4+ T cells under Treg cell generating conditions", "type": "cell-based"}, "[13]": {"tested_on": "response to OVA in EAE-induced mice", "assay": "EAE mice treated for 15 days, then immunized with OVA/CFA", "type": "in vivo, C57BL/6 mice", "experimental": "Treatment stopped and mice were then injected with OVA/CFA (Complete Freund's Adjuvant).\nInstead, the response to a new antigen that the mice are exposed to is enhanced."}, "[14]": {"details": "2 mg/mouse i.p. daily from EAE induction, in comparison to the control, FIG. 7"}}, "data": [{"smiles": "C[C@]12CC[C@H](O)CC1=CC[C@@H]1[C@@H]2CC[C@]2(C)C(=O)CC[C@@H]12", "note": "[DHEA, dehydroepiandrosterone]", "values": [{"measurement": "proliferation", "setting": "[1]", "value": "significantly decreased"}, {"measurement": "secretion of IFN-γ", "setting": "[1]", "value": "significantly decreased"}, {"measurement": "secretion of IL-2", "setting": "[1]", "value": "significantly decreased"}, {"measurement": "degree of paralysis", "setting": "[2]; 2 mg/mouse i.p. daily from EAE induction until day 26, vs PBS", "value": "decreased"}, {"measurement": "clinical course", "setting": "[2]; 2 mg/mouse i.p. daily from EAE induction until day 26, FIG. 6", "value": "improvement"}, {"measurement": "mean maximum score", "setting": "[2]; 2 mg/mouse i.p. daily from EAE induction until day 26, FIG. 7", "value": "decrease"}, {"measurement": "incidence of disease", "setting": "[2]; [14]", "value": "low incidence"}, {"measurement": "onset of disease", "setting": "[2]; [14]", "value": "delayed onset"}, {"measurement": "inflammation in the spinal cord", "setting": "[2]; 2 mg/mouse i.p. daily from EAE induction, H&E, FIG. 8", "value": "decreased inflammation"}, {"measurement": "protection against MOG peptide-induced EAE", "setting": "[2]; overall conclusion, treatment from EAE induction", "value": "conferred protection"}, {"measurement": "pathogenic immune response", "setting": "[3]; overall conclusion", "value": "significantly suppressed"}, {"measurement": "proliferation to MOG35-55 peptide", "setting": "[3]; FIG. 9a", "value": "significantly decreased"}, {"measurement": "amounts of IFN-γ produced", "setting": "[3]; FIG. 9b", "value": "substantially increased"}, {"measurement": "amounts of IL-10 produced", "setting": "[3]; FIG. 9c", "value": "substantially increased"}, {"measurement": "secretion of IL-17", "setting": "[3]; absolute increase extremely low compared to IFN-γ, FIG. 9d", "value": "increased"}, {"measurement": "amounts of IL-10 produced", "setting": "[4]; FIG. 13a", "value": "greatly increased"}, {"measurement": "secretion of IFN-γ", "setting": "[4]; FIG. 13b", "value": "substantially decreased"}, {"measurement": "secretion of IL-17", "setting": "[4]; FIG. 13c", "value": "substantially decreased"}, {"measurement": "levels of OVA-specific IgE", "setting": "[5]; 2 mg/mouse", "value": "significantly decreased"}, {"measurement": "levels of OVA-specific IgG1", "setting": "[5]; 2 mg/mouse", "value": "significantly decreased"}, {"measurement": "levels of OVA-specific IgG2a", "setting": "[5]; 2 mg/mouse", "value": "significantly decreased"}, {"measurement": "numbers of CD3+CD4+ CD25+ Foxp3+ T cells (T regulatory cells)", "setting": "[5]; 2 mg/mouse", "value": "substantially increased"}, {"measurement": "numbers of suppressive CD11c+PDCA-1+ plasmacytoid dendritic cells (pDCs)", "setting": "[5]; 2 mg/mouse", "value": "substantially increased"}, {"measurement": "numbers of eosinophils in the bronchoalveolar lavage (BAL)", "setting": "[5]; 2 mg/mouse on days 0,1,2,12,13,14,18,19,20, vs PBS-treated mice, FIG. 14a", "value": "significantly decreased"}, {"measurement": "numbers of lymphomononuclear cells in the bronchoalveolar lavage (BAL)", "setting": "[5]; 2 mg/mouse, vs PBS-treated mice, FIG. 14a", "value": "significantly decreased"}, {"measurement": "lung leukocytic infiltration", "setting": "[5]; 2 mg/mouse, FIG. 14b", "value": "significantly decreased"}, {"measurement": "OVA-specific T cell proliferation", "setting": "[5]; draining lymph nodes, FIG. 14c", "value": "significantly decreased"}, {"measurement": "allergic airway inflammation, Th2 responses and B cell responses", "setting": "[5]; overall conclusion of Example 3", "value": "suppress"}, {"measurement": "clinical course", "setting": "[6]; 2 mg/mouse i.p. daily from day 13, FIG. 16", "value": "significant improvement"}, {"measurement": "mean maximum score", "setting": "[6]; 2 mg/mouse i.p. daily from day 13, FIG. 17", "value": "decrease"}, {"measurement": "inflammation in the spinal cord", "setting": "[6]; 2 mg/mouse i.p. daily from day 13, FIG. 18", "value": "decreased inflammation"}, {"measurement": "degree of paralysis", "setting": "[6]; 2 mg/mouse i.p. daily from day 13 until day 26-28", "value": "significantly decreased"}, {"measurement": "ongoing MOG peptide-induced EAE", "setting": "[6]; overall conclusion, treatment from day 13", "value": "suppressed"}, {"measurement": "pathogenic immune response and symptoms", "setting": "[7]; overall conclusion, mice with ongoing EAE", "value": "significantly suppressed"}, {"measurement": "proliferation to MOG35-55 peptide", "setting": "[7]; treatment from day 13, FIG. 19a", "value": "significantly decreased"}, {"measurement": "amounts of IFN-γ produced", "setting": "[7]; treatment from day 13, FIG. 19b", "value": "substantially decreased"}, {"measurement": "amounts of IL-17 produced", "setting": "[7]; treatment from day 13, FIG. 19c", "value": "substantially decreased"}, {"measurement": "IL-10+ Treg cells", "setting": "[7]; treatment from day 13, FIG. 20", "value": "significantly increased"}, {"measurement": "secretion of IL-10", "setting": "[7]; treatment from day 13, FIG. 19d", "value": "increased"}, {"measurement": "recovery of recipients", "setting": "[8]; DLN cell transfer, vs PBS-treated donors, FIG. 24", "value": "rapid recovery"}, {"measurement": "mean maximum disease score", "setting": "[8]; DLN cell transfer, vs PBS-treated donors, FIG. 25", "value": "significant reduction"}, {"measurement": "EAE development in recipients", "setting": "[8]; DLN cells of donors treated days 12-17, vs DLN cells from PBS-treated donors, FIG. 24", "value": "confer suppression"}, {"measurement": "ex vivo proliferation to MOG35-55", "setting": "[8]; DLN cells of recipients, FIG. 26a", "value": "significantly decreased"}, {"measurement": "levels of supernatant IFN-γ", "setting": "[8]; DLN cells of recipients, FIG. 26b", "value": "decreased levels"}, {"measurement": "levels of supernatant IL-17", "setting": "[8]; DLN cells of recipients, FIG. 26c", "value": "decreased levels"}, {"measurement": "recruitment of CD11c+ dendritic cells", "setting": "[8]; draining lymph nodes of recipients, FIG. 27a", "value": "substantially decreased"}, {"measurement": "recruitment of IL-17 secreting T cells", "setting": "[8]; draining lymph nodes of recipients, FIG. 27b", "value": "substantially decreased"}, {"measurement": "recruitment of CD4+ Foxp3+ regulatory T cells", "setting": "[8]; draining lymph nodes of recipients, FIG. 27c", "value": "increased"}, {"measurement": "mean maximum EAE score", "setting": "[9]; CD4+ T cell transfer into recipients with ongoing EAE, FIGS. 28 and 29", "value": "significant decrease"}, {"measurement": "proliferation to MOG35-55 ex vivo", "setting": "[9]; DLN cells and splenocytes of recipients, FIG. 30", "value": "significantly decreased"}, {"measurement": "ex vivo proliferation to MOG35-55", "setting": "[10]; DLN cells of Rag−/− recipients, FIG. 33a", "value": "substantially decreased"}, {"measurement": "production of IFN-γ", "setting": "[10]; DLN cells of Rag−/− recipients, FIG. 33b", "value": "decreased production"}, {"measurement": "production of IL-17", "setting": "[10]; DLN cells of Rag−/− recipients, FIG. 33c", "value": "decreased production"}, {"measurement": "EAE scores induced in recipients", "setting": "[10]; after pertussis toxin injections, FIGS. 31 and 32", "value": "very low EAE scores"}, {"measurement": "number of CD4+ IL-10-secreting T cells", "setting": "[11]; among Th17 differentiating cells, 4 days, FIG. 37", "value": "significant increase"}, {"measurement": "number of CD4+ IL-17-secreting T cells", "setting": "[11]; and rIL-6, 4 days, vs RPMI, FIG. 36", "value": "increase"}, {"measurement": "proliferation", "setting": "[12]; Treg cell generating conditions, 5 days, FIG. 39", "value": "increased"}, {"measurement": "number of Foxp3+ Treg cells", "setting": "[12]; rIL-2, with or even without rTGF-β1, 5 days, FIG. 38", "value": "significant increase"}, {"measurement": "production of IFN-γ", "setting": "[13]; after OVA/CFA immunization", "value": "increased"}, {"measurement": "T cell response to OVA ex vivo (3H-Thymidine incorporation)", "setting": "[13]; after OVA/CFA immunization, FIG. 40", "value": "substantially increased"}, {"measurement": "EAE phenotype after end of treatment and OVA/CFA injection", "setting": "[13]; in comparison to control mice", "value": "stable phenotype without any deterioration"}, {"measurement": "protection from EAE", "setting": "[13]; treated 15 days from shortly after disease onset, then OVA/CFA", "value": "clearly protected"}]}]}
